In patent US20130190399A1, “Synthesis and use of omega-3 and omega 6 very long chain polyunsaturated fatty acids (VLC-PUFA)” (MARTEK BIOSCIENCES CORPORATION, priority 2009, published 2013):

Experiments:
Type in all cases: cell-based, rat
[1] = test system: primary hippocampal neurons; experiment: Hypoxia, cell death (propidium iodide) after VLC-PUFA pretreatment; details: 48 h hypoxia, O2 ≦0.3%, tested 0.1-30 μM
Protocol: Primary hippocampal neurons were harvested from embryonic day 17-18 rat fetuses using a modified version of previously described protocols (Banker and Cowan, 1977; Brewer et al., 1993) that preferentially select for neuronal growth over glial growth (Brewer, 1997). Pregnant dams were anesthetized via isoflurane on gestational day 18, and the rat fetuses were harvested by Cesarean section. Brains were removed and placed in ice-cold (4° C.) Hibernate EB (Brain Bits, Inc., Springfield, Il, USA) until all of the hippocampi were dissected. During the dissection, brain tissue was kept on an ice-cold block in Hibernate E solution. Dissected hippocampal tissue was washed once in room-temperature Hibernate E (without calcium, Brain Bits, Inc.) to remove divalent cations, and then incubated at 37° C. in a solution consisting of 0.17% trypsin in Hybernate E (without calcium) for 10 minutes. The tissue was subsequently washed once with ice-cold Hybernate E (without calcium) containing 15% fetal bovine serum (Atlas Biologicals, Fort Collins, Colo., USA) and then dissociated by trituration in the same media. Dispersed cell suspensions were centrifuged for 2 minutes at 200 g at 4° C., and resuspended in ice-cold Neurobasal medium (Invitrogen, Carlsbad, Calif., USA) supplemented with 1×B27 (Invitrogen), 100 μg/ml penicillin-streptomycin (Invitrogen), 0.5 mM L-glutamine (Invitrogen) and 0.025 mM L-glutamate (Sigma, St. Louis, Mo., USA). Viable cell number and concentration were determined by trypan blue exclusion and counted using an automated cell counter (Countess, Invitrogen). Cell suspensions were diluted in warm Neurobasal/B27 media and plated at a density of 30,000 cells per well in 96-well plates (Falcon Optilux plates, BD Biosciences, Bedford, Mass., USA) coated with laminin (Sigma) and poly-D-lysine (Sigma). Cultures were maintained in a temperature- (37° C.), humidity- (−100%), and gas- (5% CO2, 9% O2) controlled incubator. Half of the media was removed and replaced with fresh media every other day. […]

[2] = test system: primary hippocampal neurons; experiment: Glutamate neurotoxicity, cell death (propidium iodide) after VLC-PUFA pretreatment; details: for IC50: Rattus norvegicus, Hippocampal neuron, 48 h pretreatment, L-glutamic acid 50 μM 60 min, assayed 24 h later, read-out: half-maximal inhibitory concentration (IC50), inhibition of cell death due to glutamate exposure; for concentrations at which cell death due to glutamate exposure was significantly inhibited: tested 0.1-30 μM, ANOVA/Tukey vs injured vehicle control, p<0.05
Protocol: (§1) Primary hippocampal neurons were harvested from embryonic day 17-18 rat fetuses using a modified version of previously described protocols (Banker and Cowan, 1977; Brewer et al., 1993) that preferentially select for neuronal growth over glial growth (Brewer, 1997). Pregnant dams were anesthetized via isoflurane on gestational day 18, and the rat fetuses were harvested by Cesarean section. Brains were removed and placed in ice-cold (4° C.) Hibernate EB (Brain Bits, Inc., Springfield, Il, USA) until all of the hippocampi were dissected. During the dissection, brain tissue was kept on an ice-cold block in Hibernate E solution. Dissected hippocampal tissue was washed once in room-temperature Hibernate E (without calcium, Brain Bits, Inc.) to remove divalent cations, and then incubated at 37° C. in a solution consisting of 0.17% trypsin in Hybernate E (without calcium) for 10 minutes. The tissue was subsequently washed once with ice-cold Hybernate E (without calcium) containing 15% fetal bovine serum (Atlas Biologicals, Fort Collins, Colo., USA) and then dissociated by trituration in the same media. Dispersed cell suspensions were centrifuged for 2 minutes at 200 g at 4° C., and resuspended in ice-cold Neurobasal medium (Invitrogen, Carlsbad, Calif., USA) supplemented with 1×B27 (Invitrogen), 100 μg/ml penicillin-streptomycin (Invitrogen), 0.5 mM L-glutamine (Invitrogen) and 0.025 mM L-glutamate (Sigma, St. Louis, Mo., USA). Viable cell number and concentration were determined by trypan blue exclusion and counted using an automated cell counter (Countess, Invitrogen). Cell suspensions were diluted in warm Neurobasal/B27 media and plated at a density of 30,000 cells per well in 96-well plates (Falcon Optilux plates, BD Biosciences, Bedford, Mass., USA) coated with laminin (Sigma) and poly-D-lysine (Sigma). Cultures were maintained in a temperature- (37° C.), humidity- (−100%), and gas- (5% CO2, 9% O2) controlled incubator. Half of the media was removed and replaced with fresh media every other day. All cultures were maintained for 3 days in vitro (DIV) in glutamate-containing media and then maintained an additional 7 DIV (glutamate neurotoxicity experiments) or 8 DIV (hypoxia) in Neurobasal/B27 media without glutamate.
(§2) Very long-chain polyunsaturated fatty acids (VLCPUFAs; 34:6n3, 34:5n3, 28:6n3, 28:5n3, and 28:4n6) were obtained as the free fatty acid and were stored at −20° C. until use. Each VLC-PUFA was dissolved in methanol to an initial concentration of 100 mM and then diluted serially in methanol to obtain 1000× stocks for each concentration tested. These were diluted further in media to obtain the appropriate concentration within the culture wells (final concentrations of 30 μM, 10 μM, 3 μM, 1 μM, 0.3 μM, and 0.1 μM). Controls received methanol similarly diluted in media (final concentration 0.1%). The VLC-PUFAs were added to the cultures 48 hours prior to glutamate insult or hypoxia exposure (described below), and a 50% media change occurred immediately prior to hypoxia exposure or immediately following glutamate exposure.
Cultures were treated with L-glutamic acid (50 μM, pH 7.0) for 60 minutes followed by a complete media change containing the appropriate concentrations of VLC-PUFAs. Cells were assayed for viability and mitochondrial health 24 hours after the glutamate treatment. […]

[3] = test system: primary hippocampal neurons; experiment: Mitochondrial health (TMRE) after glutamate-induced neurotoxicity; details: for EC50: Rattus norvegicus, Hippocampal neuron, 48 h pretreatment, L-glutamic acid 50 μM 60 min, assayed 24 h later, read-out: half-maximal effective concentration (EC50), increase of mitochondrial health after glutamate; for concentrations at which mitochondrial health after glutamate was significantly increased: tested 0.1-30 μM, ANOVA/Tukey vs injured vehicle control
Protocol: as §1, §2
Cultures were treated with L-glutamic acid (50 μM, pH 7.0) for 60 minutes followed by a complete media change containing the appropriate concentrations of VLC-PUFAs. Cells were assayed for viability and mitochondrial health 24 hours after the glutamate treatment.
Following glutamate exposure or hypoxia, cultures were aspirated with a 96-well plate washer (BioTek, Winooski, Vt., USA) and incubated for 15 minutes at 37° C. with phenol-free Neurobasal media (Invitrogen) containing one of two dye mixtures: 1) Hoechst dye (1:2000 of a 10 μg/ml solution, Invitrogen) and propidium iodide (PI; 1:500 of a 1 μg/ml solution; Invitrogen), or 2) Hoechst dye and tetramethylrhodamine ethyl ester (TMRE; 100 nM; Invitrogen). These dyes identify total cells (Hoechst), dying or dead cells (PI), and functional mitochondria (TMRE). […]

[4] = test system: primary hippocampal neurons; experiment: Mitochondrial health (TMRE) after hypoxia; details: 48 h hypoxia, O2 ≦0.3%; tested 0.1-30 μM
Protocol: Primary hippocampal neurons were harvested from embryonic day 17-18 rat fetuses using a modified version of previously described protocols (Banker and Cowan, 1977; Brewer et al., 1993) that preferentially select for neuronal growth over glial growth (Brewer, 1997). Pregnant dams were anesthetized via isoflurane on gestational day 18, and the rat fetuses were harvested by Cesarean section. Brains were removed and placed in ice-cold (4° C.) Hibernate EB (Brain Bits, Inc., Springfield, Il, USA) until all of the hippocampi were dissected. During the dissection, brain tissue was kept on an ice-cold block in Hibernate E solution. Dissected hippocampal tissue was washed once in room-temperature Hibernate E (without calcium, Brain Bits, Inc.) to remove divalent cations, and then incubated at 37° C. in a solution consisting of 0.17% trypsin in Hybernate E (without calcium) for 10 minutes. The tissue was subsequently washed once with ice-cold Hybernate E (without calcium) containing 15% fetal bovine serum (Atlas Biologicals, Fort Collins, Colo., USA) and then dissociated by trituration in the same media. […] Viable cell number and concentration were determined by trypan blue exclusion and counted using an automated cell counter (Countess, Invitrogen). […]

Compound | effect on hypoxia-induced cell death (in words) [1] | IC50 [2] | concentrations at which cell death due to glutamate exposure was significantly inhibited [2] | EC50 [3] | concentrations at which mitochondrial health after glutamate was significantly increased [3] | concentrations at which cell death due to hypoxia was significantly inhibited ([1]; 48 h pretreatment) | effect on mitochondrial health after hypoxia (in words) [4]
CC/C=C\C/C=C\C/C=C\C/C=C\C/C=C\C/C=C\CCCCCCCCC(=O)O [28:6n3] | did not inhibit hypoxia-induced cell death at any concentration tested | 210 nM | ≥ 0.3 µM | 170 nM | ≥ 3.0 µM | – | –
CC/C=C\C/C=C\C/C=C\C/C=C\C/C=C\CCCCCCCCCCCCCCCCCC(=O)O [34:5n3] | exhibited a main effect of treatment, but only one concentration (0.3 μM) approached a significant difference when compared to controls | 690 nM | – | 680 nM | 3.0 µM | – | –
CC/C=C\C/C=C\C/C=C\C/C=C\C/C=C\C/C=C\CCCCCCCCCCCCCCC(=O)O [34:6n3] | – | 1070 nM | ≥ 3.0 µM | 250 nM | ≥ 0.3 µM | 1.0 µM | did not significantly alter mitochondrial health at the concentrations tested
